Test results: PMC3288262 (Bioorganic & medicinal chemistry letters, 2012)
Values joined by “and” are separate entries in the source; they are usually repeats but may differ in a detail not shown here. Equal entries are not always repeated. Marks after values point to notes of the source that are not given here. Starred links: 1 amine or outer side, 2 acyl side, 3 side chain; linkers in the order of their positions; H or OH if unused. Non-standard residues stand in square brackets, D forms with d. Residues, ends and D or L forms follow the SMILES beside them. Bcp = 4'-[N-((4'-phenyl)phenethyl)carboxamido]phenylalanine, O=C(NCCc1ccc(-c2ccccc2)cc1)c1ccc(C[C@H](N[*:1])C(=O)[*:2])cc1; Tic = O=C(O)[C@@H]1Cc2ccccc2CN1

Columns and labels:
[1] = system: μ opioid receptor (guinea pig ileum); experiment: guinea pig ileum; details: read-out: GPI IC50; agonist potency; P.A. = partial agonist
human δ opioid receptor = human δ opioid receptor (Homo sapiens, UniProt P41143); format: biochemical; details: mean of 3–6 determinations ± SEM; for [35S]GTPγS binding ED50: HEK293 cells, human δ opioid receptor
Chain of human δ opioid receptor (P41143 whole entry): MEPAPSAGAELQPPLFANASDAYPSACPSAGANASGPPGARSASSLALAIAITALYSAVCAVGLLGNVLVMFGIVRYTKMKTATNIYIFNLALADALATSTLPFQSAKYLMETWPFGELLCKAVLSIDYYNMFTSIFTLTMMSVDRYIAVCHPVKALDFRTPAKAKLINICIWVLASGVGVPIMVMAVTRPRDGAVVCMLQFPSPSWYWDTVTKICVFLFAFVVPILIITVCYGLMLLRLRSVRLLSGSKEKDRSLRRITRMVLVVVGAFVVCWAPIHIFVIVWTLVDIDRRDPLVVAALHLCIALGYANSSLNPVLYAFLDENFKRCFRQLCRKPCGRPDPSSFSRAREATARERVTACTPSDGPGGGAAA

μ opioid receptors = μ opioid receptors (Rattus norvegicus, UniProt P33535); details: read-out: Ki^μ; [3H]DAMGO displacement, rat brain membranes; ref [10]; cited from earlier work
Chain of μ opioid receptors (P33535 whole entry): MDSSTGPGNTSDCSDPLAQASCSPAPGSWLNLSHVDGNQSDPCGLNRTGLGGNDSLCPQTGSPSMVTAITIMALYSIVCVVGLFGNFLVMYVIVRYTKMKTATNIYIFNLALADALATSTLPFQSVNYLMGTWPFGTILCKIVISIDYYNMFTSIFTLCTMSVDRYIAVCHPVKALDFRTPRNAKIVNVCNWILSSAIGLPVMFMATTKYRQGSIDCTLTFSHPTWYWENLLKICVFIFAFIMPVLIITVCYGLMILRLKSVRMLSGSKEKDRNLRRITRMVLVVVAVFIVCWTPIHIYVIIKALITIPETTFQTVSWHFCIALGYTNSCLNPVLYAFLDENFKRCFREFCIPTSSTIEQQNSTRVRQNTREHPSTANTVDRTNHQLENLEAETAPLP

δ opioid receptors = δ opioid receptors (Rattus norvegicus, UniProt P33533); details: ref [10], cited from earlier work
Chain of δ opioid receptors (P33533 whole entry): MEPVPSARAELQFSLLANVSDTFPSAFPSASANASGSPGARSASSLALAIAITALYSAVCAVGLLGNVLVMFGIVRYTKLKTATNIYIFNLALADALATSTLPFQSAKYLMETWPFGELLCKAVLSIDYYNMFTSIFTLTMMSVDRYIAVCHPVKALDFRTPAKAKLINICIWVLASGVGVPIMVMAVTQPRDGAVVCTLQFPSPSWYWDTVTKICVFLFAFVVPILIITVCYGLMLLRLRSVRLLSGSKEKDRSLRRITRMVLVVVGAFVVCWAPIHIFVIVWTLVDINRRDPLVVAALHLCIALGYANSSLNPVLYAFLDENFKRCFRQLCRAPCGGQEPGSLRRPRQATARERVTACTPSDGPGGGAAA

[2] = target: δ opioid receptor (mouse vas deferens, δ receptor-representative) (Mus musculus, UniProt P32300); details: read-out: MVD IC50; agonist potency; ref [10]; cited from earlier work
Chain of δ opioid receptor (mouse vas deferens, δ receptor-representative) (P32300 whole entry): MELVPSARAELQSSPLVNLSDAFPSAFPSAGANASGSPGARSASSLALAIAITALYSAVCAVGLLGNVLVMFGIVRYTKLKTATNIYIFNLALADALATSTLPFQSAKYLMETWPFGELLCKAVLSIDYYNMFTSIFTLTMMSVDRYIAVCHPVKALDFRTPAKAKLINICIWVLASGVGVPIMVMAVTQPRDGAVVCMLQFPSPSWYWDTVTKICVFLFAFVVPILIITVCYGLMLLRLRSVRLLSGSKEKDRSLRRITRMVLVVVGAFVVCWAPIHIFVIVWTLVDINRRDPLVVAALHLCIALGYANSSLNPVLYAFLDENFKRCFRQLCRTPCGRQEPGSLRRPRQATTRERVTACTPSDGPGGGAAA

[3] = system: μ opioid receptor (guinea pig ileum); details: partial agonist, IC40 given in IC50 column; ref [10]; cited from earlier work

Row | Compound | IC50 [1] [nM] | [35S]GTPγS binding ED50 (human δ opioid receptor) | Ki (μ opioid receptors) [nM] | Ki (δ opioid receptors; read-out: Ki^δ, [3H]DSLET displacement, rat brain membranes) [nM] | IC50 [2] [nM] | GPI IC40 [3] | Ki^μ/Ki^δ (δ opioid receptors; δ vs. μ receptor binding selectivity) | [35S]GTPγS binding efficacy e (human δ opioid receptor; efficacy relative to DPDPE (e = 1.0))
1 | N[C@@H](Cc1ccc(O)cc1)C(=O)N1Cc2ccccc2C[C@H]1C(=O)N[C@@H](Cc1ccccc1)C(=O)N[C@@H](Cc1ccccc1)C(=O)O [TIPP, H-Tyr-Tic-Phe-Phe-OH, reference compound] (H-Y[Tic]FF-OH) | > 10000 | antagonist |  |  |  |  |  | 
2 | H-Bcp-Tic-Phe-Phe-OH (H-[Bcp][Tic]FF-OH) [Compound 13] |  |  | 87.7 ± 8 | 0.605 ± 0.058 | 3.42 ± 0.36 |  |  | 
3 | H-Bcp-Tic-Phe-Phe-OH [Compound 13] |  | 0.413 ± 0.015 nM |  |  |  | 223 ± 37 (IC40) ^d nM | 145 | 0.678 and 0.678 ± 0.076
